Usually Emax stands for the size of the effect at its maximum, as opposed to the concentration needed. In general, share remaining refers to the share of the starting amount still present when the sample was taken.

Data on six molecules can be found in patent publication US20240270809A1, “ORAL GLP RECEPTOR AGONISTS” (priority 2020, published 2024).

Positions of bridges follow the written chain, without caps; N, C: chain ends. Non-standard residues stand in square brackets, D forms with d. Residues, ends and D or L forms follow the SMILES beside them. *: point of attachment. Malonyl(2,2-Me2,histaminyl) = CC(C)(C(=O)NCCc1cnc[nH]1)C(=O)*; Ala(1H-tetrazol-5-yl) = N[C@@H](Cc1nnn[nH]1)C(=O)O; αMePhe(2-F) = C[C@](N)(Cc1ccccc1F)C(=O)O; αMeL = CC(C)C[C@](C)(N)C(=O)O; Nle = CCCC[C@H](N)C(=O)O; Aib = CC(C)(N)C(=O)O

One data set concerns the target T1, human GLP2 receptor (Homo sapiens, UniProt O95838).
T1 construct: expressed in transfected cells; host or cells: HEK cells, BacMam virus transduction
T1 sequence (O95838 1-553): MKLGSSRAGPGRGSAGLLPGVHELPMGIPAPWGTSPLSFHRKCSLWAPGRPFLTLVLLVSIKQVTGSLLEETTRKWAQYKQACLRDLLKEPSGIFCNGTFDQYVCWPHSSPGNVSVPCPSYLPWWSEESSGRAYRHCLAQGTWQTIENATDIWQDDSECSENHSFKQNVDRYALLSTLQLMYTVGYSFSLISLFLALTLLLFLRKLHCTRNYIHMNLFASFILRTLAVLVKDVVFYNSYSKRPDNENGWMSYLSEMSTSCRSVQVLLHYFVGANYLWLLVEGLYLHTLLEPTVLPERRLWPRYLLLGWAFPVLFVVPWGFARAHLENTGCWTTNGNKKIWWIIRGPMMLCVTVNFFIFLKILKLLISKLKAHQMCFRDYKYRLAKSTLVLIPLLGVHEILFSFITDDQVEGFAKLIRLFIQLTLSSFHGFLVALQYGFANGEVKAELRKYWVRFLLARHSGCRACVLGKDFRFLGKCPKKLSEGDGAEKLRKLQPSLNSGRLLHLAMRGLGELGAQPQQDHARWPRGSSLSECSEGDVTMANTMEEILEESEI
Description: cAMP accumulation assay, functional agonism of human GLP2 receptor. Type of data set: cell-based. To be noted: HEK cells infected with human GLP2 receptor BacMam virus, HTRF cAMP; for Emax: HEK293, read-out: Human GLP-2R agonist cAMP Emax; for EC50: read-out: Human GLP-2R agonist cAMP pEC50 (converted). An outline of the steps:
(§1)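 Frozen HEK cells, previously BacMam-infected 24 h to express either receptor, are stimulated for 45 min at 37° C in IBMX-containing (0.5 mM) HBSS. The reaction is then terminated with HTRF reagents in lysis buffer.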
A general note: Changes in cAMP serve as a functional read-out for many G protein-coupled receptors.

A further data set addresses T2, human GLP1 receptor (Homo sapiens, UniProt P43220).
T2 construct: expressed in transfected cells; host or cells: HEK cells, BacMam virus transduction
Description: cAMP accumulation assay, functional agonism of human GLP1 receptor. The following applies: HEK cells infected with human GLP1 receptor BacMam virus, HTRF cAMP; for Emax: HEK293, read-out: Human GLP-1R agonist cAMP Emax; for EC50: read-out: Human GLP-1R agonist cAMP pEC50 (converted). Type of data set: cell-based. An outline of the steps: as §1

Data set [1] in a line: Stability of peptides in Fasted-State Simulated Intestinal Fluid (FaSSIF). Type of data set: in vitro ADME. To be noted: FaSSIF with 10 mg/ml pancreatin; t=30 mins, 37° C., pH 6.5, 10 mg/ml pancreatin.

T2 sequence (P43220 24-463): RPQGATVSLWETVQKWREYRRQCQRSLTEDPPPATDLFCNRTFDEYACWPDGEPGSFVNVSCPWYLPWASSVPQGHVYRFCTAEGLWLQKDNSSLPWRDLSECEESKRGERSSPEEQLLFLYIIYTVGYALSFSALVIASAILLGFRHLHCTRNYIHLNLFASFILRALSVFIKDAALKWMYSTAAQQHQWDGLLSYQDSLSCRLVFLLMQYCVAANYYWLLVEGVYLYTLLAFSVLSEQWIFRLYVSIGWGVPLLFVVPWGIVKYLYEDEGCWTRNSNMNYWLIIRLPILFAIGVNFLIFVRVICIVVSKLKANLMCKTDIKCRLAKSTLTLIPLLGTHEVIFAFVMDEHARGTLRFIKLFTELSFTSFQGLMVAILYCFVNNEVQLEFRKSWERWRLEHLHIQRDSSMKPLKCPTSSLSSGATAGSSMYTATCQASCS

`CCCC[C@@H]1NC(=O)[C@H](CCC(=O)O)NC(=O)[C@@H](NC(=O)[C@H](CO)NC(=O)[C@H](Cc2ccccc2)NC(=O)[C@H](CO)NC(=O)CNC(=O)[C@H](CC(=O)O)NC(=O)C(C)(C)NC(=O)[C@@H](N)Cc2c[nH]cn2)CCCCNC(=O)C[C@@H](C(=O)N[C@H](C(=O)N[C@@H](CC(C)C)C(=O)N[C@@H](CC(=O)O)C(=O)N[C@H]2CCC(=O)NCCCC[C@@H](C(=O)N[C@@H](CC(=O)O)C(=O)N[C@@H](Cc3ccccc3)C(=O)N[C@H](C(=O)N[C@@H](CC(N)=O)C(=O)N[C@@H](Cc3c[nH]c4ccccc34)C(=O)N[C@@H](CC(C)C)C(=O)N[C@H](C(=O)N[C@@H](CCC(N)=O)C(=O)N[C@H]3CCC(=O)NCCCC[C@@H](C(N)=O)NC(=O)[C@H]([C@@H](C)O)NC(=O)[C@H]([C@@H](C)CC)NC(=O)[C@H](CCCCN)NC3=O)[C@@H](C)CC)[C@@H](C)CC)NC(=O)[C@H](C)NC(=O)[C@H](C)NC(=O)[C@H](CCCCN)NC2=O)[C@@H](C)CC)NC(=O)[C@@H](Cc2ccccc2)NC1=O` [Example 4] (H-H[Aib]DGSFSKE[Nle][dF]DILDEKAAKDFINWLIQEKITK-NH2; lactam 8-12, 16-20, 29-33 (inferred); C-terminus assumed): the Emax at human GLP2 receptor amounted to 103%; at human GLP1 receptor, 94.7%. Also, the EC50 on human GLP2 receptor is 0.01 nM; at human GLP1 receptor, 0.501 nM. Moreover, the amount remaining at 0.5 h in data set [1] is 4.3%.
Consider `CCCC[C@@H]1NC(=O)[C@H](CCC(=O)O)NC(=O)[C@@H](NC(=O)[C@H](CO)NC(=O)[C@H](Cc2ccccc2)NC(=O)[C@H](CO)NC(=O)CNC(=O)[C@H](Cc2nn[nH]n2)NC(=O)C(C)(C)C(=O)NCCc2c[nH]cn2)CCCCNC(=O)C[C@@H](C(=O)N[C@@](C)(CC(C)C)C(=O)N[C@@H](CC(C)C)C(=O)N[C@@H](CC(=O)O)C(=O)N[C@H]2CCC(=O)NCCCC[C@@H](C(=O)N[C@@H](CC(=O)O)C(=O)N[C@@H](Cc3ccccc3)C(=O)N[C@H](C(=O)N[C@@H](CC(N)=O)C(=O)N[C@@H](Cc3c[nH]c4ccccc34)C(=O)N[C@@H](CC(C)C)C(=O)N[C@H](C(=O)N[C@@H](CCC(N)=O)C(=O)N[C@H](C(=O)N[C@H]3CCC(=O)NCCCC[C@@H](C(N)=O)NC(=O)[C@H]([C@@H](C)O)NC(=O)[C@H]([C@@H](C)CC)NC3=O)[C@@H](C)O)[C@@H](C)CC)[C@@H](C)CC)NC(=O)[C@H](C)NC(=O)[C@H](C)NC(=O)[C@H](CCCCN)NC2=O)NC(=O)[C@@H](Cc2ccccc2)NC1=O` [Example 11] ({Malonyl(2,2-Me2,histaminyl)}-[Ala(1H-tetrazol-5-yl)]GSFSKE[Nle][dF]D[αMeL]LDEKAAKDFINWLIQTEITK-NH2; lactam 6-10, 14-18, 28-31 (inferred); C-terminus assumed), for which the values for the maximum response (Emax) on human GLP2 receptor and on human GLP1 receptor were 105% and 95.3%, respectively. The EC50 was 0.0794 nM on human GLP2 receptor and 0.251 nM on human GLP1 receptor. For the same molecule, the share remaining at 0.5 h in data set [1] was 22.3%.
As to `CCCC[C@@H]1NC(=O)[C@H](CCC(=O)O)NC(=O)[C@@H](NC(=O)[C@H](CO)NC(=O)[C@H](Cc2ccccc2)NC(=O)[C@H](CO)NC(=O)CNC(=O)[C@H](Cc2nn[nH]n2)NC(=O)C(C)(C)C(=O)NCCc2c[nH]cn2)CCCCNC(=O)C[C@@H](C(=O)N[C@H](C(=O)N[C@@H](CC(C)C)C(=O)N[C@@H](CC(=O)O)C(=O)N[C@H]2CCC(=O)NCCCC[C@@H](C(=O)N[C@@H](CC(=O)O)C(=O)N[C@@H](Cc3ccccc3)C(=O)N[C@H](C(=O)N[C@@H](CC(N)=O)C(=O)N[C@@H](Cc3c[nH]c4ccccc34)C(=O)N[C@@H](CC(C)C)C(=O)N[C@H](C(=O)N[C@@H](CCC(N)=O)C(=O)N[C@H](C(=O)N[C@H]3CCC(=O)NCCCC[C@@H](C(N)=O)NC(=O)[C@H]([C@@H](C)O)NC(=O)[C@H]([C@@H](C)CC)NC3=O)[C@@H](C)O)[C@@H](C)CC)[C@@H](C)CC)NC(=O)[C@H](C)NC(=O)C(C)(C)NC(=O)[C@H](CCCCN)NC2=O)[C@@H](C)CC)NC(=O)[C@@H](Cc2ccccc2)NC1=O` [Example 12] ({Malonyl(2,2-Me2,histaminyl)}-[Ala(1H-tetrazol-5-yl)]GSFSKE[Nle][dF]DILDEK[Aib]AKDFINWLIQTEITK-NH2; lactam 6-10, 14-18, 28-31; C-terminus assumed), the Emax on human GLP2 receptor was 105%; on human GLP1 receptor it was 94.5%. The EC50 on human GLP2 receptor was 0.0501 nM; on human GLP1 receptor, 0.251 nM. Further, in data set [1], the amount remaining at 0.5 h is 10.7%.
The like results for `CCCC[C@@H]1NC(=O)[C@H](CCC(=O)O)NC(=O)[C@@H](NC(=O)[C@H](CO)NC(=O)[C@H](Cc2ccccc2)NC(=O)[C@H](CO)NC(=O)CNC(=O)[C@H](Cc2nn[nH]n2)NC(=O)C(C)(C)C(=O)NCCc2c[nH]cn2)CCCCNC(=O)C[C@@H](C(=O)N[C@H](C(=O)N[C@@H](CC(C)C)C(=O)N[C@@H](CC(=O)O)C(=O)N[C@H]2CCC(=O)NCCCC[C@@H](C(=O)N[C@@H](CC(=O)O)C(=O)N[C@@H](Cc3ccccc3)C(=O)N[C@H](C(=O)N[C@@H](CC(N)=O)C(=O)N[C@@H](Cc3c[nH]c4ccccc34)C(=O)N[C@@H](CC(C)C)C(=O)N[C@H](C(=O)N[C@@H](CCC(N)=O)C(=O)N[C@H](C(=O)N[C@H]3CCC(=O)NCCCC[C@@H](C(=O)N4CCC[C@H]4C(N)=O)NC(=O)[C@H]([C@@H](C)O)NC(=O)[C@H]([C@@H](C)CC)NC3=O)[C@@H](C)O)[C@@H](C)CC)[C@@H](C)CC)NC(=O)[C@H](C)NC(=O)[C@H](C)NC(=O)[C@H](CCCCN)NC2=O)[C@@H](C)CC)NC(=O)[C@@H](Cc2ccccc2)NC1=O` [Example 13] ({Malonyl(2,2-Me2,histaminyl)}-[Ala(1H-tetrazol-5-yl)]GSFSKE[Nle][dF]DILDEKAAKDFINWLIQTEITKP-NH2; lactam 6-10, 14-18, 28-31 (inferred); C-terminus assumed) were, in that order, 104%, 92.5%, 0.0316 nM, 0.251 nM and 3.8%.
In the case of `CCCC[C@H](NC(=O)[C@H](CCC(=O)O)NC(=O)[C@@H]1CC(=O)NCCCC[C@H](NC(=O)[C@H](Cc2nn[nH]n2)NC(=O)C(C)(C)C(=O)NCCc2c[nH]cn2)C(=O)N[C@@H](CO)C(=O)N[C@@H](Cc2ccccc2)C(=O)N[C@@H](CO)C(=O)N1)C(=O)N[C@H](Cc1ccccc1)C(=O)N[C@H](C(=O)N[C@@](C)(CC(C)C)C(=O)N[C@@H](CC(C)C)C(=O)N[C@@H](CC(=O)O)C(=O)N[C@H]1CCC(=O)NCCCC[C@@H](C(=O)N[C@@H](CC(=O)O)C(=O)N[C@@H](Cc2ccccc2)C(=O)N[C@H](C(=O)N[C@H]2CCC(=O)NCCCC[C@@H](C(=O)N[C@H](C(=O)N[C@@H](CCCCN)C(N)=O)[C@@H](C)O)NC(=O)[C@H]([C@@H](C)CC)NC(=O)[C@H](CC(C)C)NC(=O)[C@H](Cc3c[nH]c4ccccc34)NC2=O)[C@@H](C)CC)NC(=O)[C@H](C)NC(=O)[C@H](C)NC(=O)[C@H](CCCCN)NC1=O)[C@@H](C)O` [Example 17] ({Malonyl(2,2-Me2,histaminyl)}-[Ala(1H-tetrazol-5-yl)]KSFSDE[Nle][dF]T[αMeL]LDEKAAKDFIEWLIKTK-NH2; lactam 2-6, 14-18, 22-26; C-terminus assumed), at human GLP2 receptor, the maximal effect (Emax) amounted to 104% and the EC50 was 0.0398 nM. Besides, on human GLP1 receptor, the Emax came out at 96.3% and the EC50 was 0.158 nM. Also, the share remaining at 0.5 h in data set [1] is 68.7%.
The like results for `CCCC[C@@H]1NC(=O)[C@H](CCC(=O)O)NC(=O)[C@@H](NC(=O)[C@H](CO)NC(=O)[C@](C)(Cc2ccccc2F)NC(=O)[C@H](CO)NC(=O)CNC(=O)[C@H](CC(=O)O)NC(=O)C(C)(C)NC(=O)[C@@H](N)Cc2c[nH]cn2)CCCCNC(=O)C[C@@H](C(=O)N[C@H](C(=O)N[C@@H](CC(C)C)C(=O)N[C@@H](CC(=O)O)C(=O)N[C@H]2CCC(=O)NCCCC[C@@H](C(=O)N[C@@H](CC(=O)O)C(=O)N[C@@H](Cc3ccccc3)C(=O)N[C@H](C(=O)N[C@@H](CC(N)=O)C(=O)N[C@@H](Cc3c[nH]c4ccccc34)C(=O)N[C@@H](CC(C)C)C(=O)N[C@H](C(=O)N[C@@H](CCC(N)=O)C(=O)N[C@H]3CCC(=O)NCCCC[C@@H](C(N)=O)NC(=O)[C@H]([C@@H](C)O)NC(=O)[C@H]([C@@H](C)CC)NC(=O)[C@H](CCCCN)NC3=O)[C@@H](C)CC)[C@@H](C)CC)NC(=O)[C@H](C)NC(=O)[C@H](C)NC(=O)[C@H](CCCCN)NC2=O)[C@@H](C)CC)NC(=O)[C@@H](Cc2ccccc2)NC1=O` [Example 18] (H-H[Aib]DGS[αMePhe(2-F)]SKE[Nle][dF]DILDEKAAKDFINWLIQEKITK-NH2; lactam 8-12, 16-20, 29-33; C-terminus assumed) were, in that order, 104%, 0.0158 nM, 97.8%, 0.1 nM and 17.3%.
